# Experimental data reported in patent publication US20250144067A1, “PERSONALIZED STARVATION THERAPY FOR CANCER” (Faeth Therapeutics, Inc., priority 2021, published 2025).
# Counter-ions that a name gives are not always drawn. Like-named read-outs stand apart in the source and are kept apart here.
# Experiments:
# [1] = test system: NCI-H292 lung cancer cells; experiment: FDA drug screening, complete media vs cholesterol-free media without statin (TABLE 1); type: cell-based, human
# [2] = test system: NCI-H292 lung cancer cells; experiment: FDA drug screening, complete media vs cholesterol-free media with simvastatin (TABLE 2); type: cell-based, human
# [3] = NCI-H292 cells, cholesterol-free media without statin
# [4] = complete vs cholesterol-free media, greater than 0 enhanced anti-cancer activity, about 0 neutral, below 0 antagonists
# [5] = NCI-H292 cells, FDA library drug in complete media
# [6] = complete media vs cholesterol-free media + simvastatin (0.04 μM), >0 enhanced anti-cancer activity, about 0 neutral, <0 antagonist
# [7] = NCI-H292 cells, cholesterol-free media without statin, FDA drug library screen
# [8] = NCI-H292 cells, complete media, FDA drug library screen
# [9] = complete vs cholesterol-free media, >0 enhanced anti-cancer activity, about 0 neutral, <0 antagonist
# [10] = NCI-H292 cells, drug in cholesterol-free media with simvastatin 0.04 μM
# [11] = NCI-H292 cells, drug in complete media
# [12] = Complete minus Cholesterol-free, >0 enhanced anti-cancer activity, about 0 neutral, <0 antagonist
# [13] = NCI-H292 cells, cholesterol-free media with simvastatin 0.04 μM, FDA drug library screen (TABLE 2)
# [14] = NCI-H292 cells, complete media, FDA drug library screen (TABLE 2)
# [15] = complete media minus cholesterol-free media + simvastatin (0.04 μM), >0 enhanced anti-cancer activity, about 0 neutral, <0 antagonist
# [16] = NCI-H292 cells, FDA drug library screen, cholesterol-free media with simvastatin 0.04 μM
# [17] = NCI-H292 cells, FDA drug library screen, complete media
# [18] = complete media minus cholesterol-free media + simvastatin, >0 enhanced anti-cancer activity, about 0 neutral, <0 antagonist
# [19] = NCI-H292 cells, cholesterol-free media with simvastatin 0.04 μM, cell growth value in FDA drug screen
# [20] = NCI-H292 cells, complete media, cell growth value in FDA drug screen
molecule,measurement,setting,value
C#CC1(O)CC[C@H]2[C@@H]3CCC4=CC(=O)CC[C@@H]4[C@H]3CC[C@@]21CC (some centres unmarked) [Norgestrel],Cholesterol-free,[1]; [3],1.349
same,Complete,"[1]; NCI-H292 cells, complete media",1.022
same,Difference,[1]; [4],−0.33
same,Cholesterol-free media + simvastatin (0.04 μM),"[2]; NCI-H292 cells, FDA library drug in cholesterol-free media with simvastatin 0.04 μM",1.456
same,Complete Media,[2]; [5],1.004
same,Difference,[2]; [6],−0.45
CCCCC1OC(=O)c2ccccc21 (centres unmarked) [Butylphthalide],Cholesterol-free,[1]; [7],0.6966
same,Complete,[1]; [8],1.343
same,Difference,[1]; [9],0.65
same,Cholesterol-free media + simvastatin (0.04 μM),[2]; [10],1.292
same,Complete Media,[2]; [11],1.12
same,Difference,[2]; [6],−0.17
O=C(Nc1ccc(Cl)cc1)Nc1ccc(Cl)c(Cl)c1 [Triclocarban],Difference,[1]; [12],−0.05
same,Cholesterol-free,[1]; [7],0.8072
same,Complete,[1]; [8],0.7602
same,Cholesterol-free media + simvastatin (0.04 μM),[2]; [13],1.029
same,Complete Media,[2]; [14],0.9601
same,Difference,[2]; [15],−0.07
OC(CCN1CCCC1)(c1ccccc1)C1CCCCC1 (centres unmarked) [Procyclidine (hydrochloride)],Cholesterol-free,[1]; [3],1.459
same,Complete,"[1]; NCI-H292 cells, complete media",0.997
same,Difference,[1]; [4],−0.46
same,Cholesterol-free media + simvastatin (0.04 μM),[2]; [10],1.237
same,Complete Media,[2]; [11],1.076
same,Difference,[2]; [6],−0.16
CC(N)C12CC3CC(CC(C3)C1)C2 (centres unmarked) [Rimantadine (hydrochloride)],Cholesterol-free,[1]; [7],0.8509
same,Complete,[1]; [8],1.649
same,Difference,[1]; [9],0.80
same,Cholesterol-free media + simvastatin (0.04 μM),[2]; [16],0.9474
same,Complete Media,[2]; [17],0.8656
same,Difference,[2]; [6],−0.08
COC(=O)[C@H]1[C@H]2C[C@@H]3c4[nH]c5ccccc5c4CCN3C[C@H]2C[C@@H](OC(=O)c2cc(OC)c(OC)c(OC)c2)[C@@H]1OC [Deserpidine],Difference,[1]; [12],−0.30
same,Cholesterol-free,[1]; [3],0.9648
same,Complete,"[1]; NCI-H292 cells, complete media",0.6619
same,Cholesterol-free media + simvastatin (0.04 μM),[2]; [10],1.05
same,Complete Media,[2]; [11],0.8141
same,Difference,[2]; [6],−0.24
CCOc1cc([C@@H](CS(C)(=O)=O)N2C(=O)c3cccc(NC(C)=O)c3C2=O)ccc1OC [Apremilast],Cholesterol-free,[1]; [7],1.127
same,Complete,[1]; [8],1.856
same,Difference,[1]; [9],0.73
same,Cholesterol-free media + simvastatin (0.04 μM),[2]; [16],1.396
same,Complete Media,[2]; [17],1.812
same,Difference,[2]; [18],0.42
O=c1[nH]ccc2c(S(=O)(=O)N3CCCNCC3)cccc12 [Hydroxyfasudil (hydrochloride)],Cholesterol-free,[1],1.045
same,Complete,[1],0.7884
same,Difference,[1],−0.26
same,Cholesterol-free media + simvastatin (0.04 μM),[2],0.8461
same,Complete Media,[2],0.9788
same,Difference,[2],0.13
CC(=O)c1ccc2c(c1)N(CCCN1CCC(CCO)CC1)c1ccccc1S2 [Piperacetazine],Difference,"[1]; Complete minus Cholesterol-free, greater than 0 enhanced anti-cancer activity, about 0 neutral, below 0 antagonists",−0.82
same,Cholesterol-free,[1]; NCI-H292 cells in cholesterol-free media without statin,1.769
same,Complete,[1]; NCI-H292 cells in complete media,0.9455
same,Cholesterol-free media + simvastatin (0.04 μM),[2]; [16],1.088
same,Complete Media,[2]; [17],0.9352
same,Difference,[2]; [6],−0.15
NC(=O)c1nc(F)c[nH]c1=O [Favipiravir],Difference,[1]; [12],−0.06
same,Cholesterol-free,[1]; [7],1.059
same,Complete,[1]; [8],0.9966
same,Cholesterol-free media + simvastatin (0.04 μM),[2]; [10],1.347
same,Complete Media,[2]; [11],1.105
same,Difference,[2]; [6],−0.24
CCN1CCCC(OC(=O)C(c2ccccc2)c2ccccc2)C1 (centres unmarked) [Piperidolate (hydrochloride)],Cholesterol-free,[1]; (hydrochloride),0.554
same,Complete,[1]; (hydrochloride),1.098
same,Difference,[1]; (hydrochloride),0.54
same,Cholesterol-free media + simvastatin (0.04 μM),[2]; (hydrochloride),0.5751
same,Complete Media,[2]; (hydrochloride),0.901
same,Difference,[2]; (hydrochloride),0.33
C=C[C@H]1C[N@@]2CC[C@H]1C[C@H]2[C@H](O)c1ccnc2ccc(OC)cc12 [Quinine (hydrochloride dihydrate)],Difference,[1]; [12],0.03
same,Cholesterol-free media + simvastatin (0.04 μM),[2]; [16],1.208
same,Difference,[2]; [6],−0.15
Nc1c(CC(=O)O)cccc1C(=O)c1ccccc1 [Amfenac (Sodium Hydrate)],Cholesterol-free,[1]; [7],1.155
same,Complete,[1]; [8],1.799
same,Difference,[1]; [9],0.64
same,Cholesterol-free media + simvastatin (0.04 μM),[2]; [13],0.8959
same,Complete Media,[2]; [14],0.8462
same,Difference,[2]; [15],−0.05
CCn1c(=O)c2c(nc(/C=C/c3ccc(OC)c(OC)c3)n2C)n(CC)c1=O [Istradefylline],Cholesterol-free,[1]; [7],0.9821
same,Difference,[1]; [9],0.19
same,Cholesterol-free media + simvastatin (0.04 μM),[2]; [10],1.183
same,Complete Media,[2]; [11],0.9547
same,Difference,[2]; [6],−0.23
Enalapril (maleate),Cholesterol-free,[1]; [3],1.397
same,Difference,[1]; [4],−0.34
same,Cholesterol-free media + simvastatin (0.04 μM),[2]; [16],1.132
same,Complete Media,[2]; [17],1.317
same,Difference,[2]; [18],0.19
Nc1nc(Cl)nc2c1ncn2[C@@H]1O[C@H](CO)[C@@H](O)[C@@H]1F [Clofarabine],Cholesterol-free,[1]; [3],0.802
same,Complete,"[1]; NCI-H292 cells, complete media",0.4474
same,Difference,[1]; [4],−0.35
same,Cholesterol-free media + simvastatin (0.04 μM),[2]; [13],0.03305
same,Complete Media,[2]; [14],0.03609
same,Difference,[2]; [15],0.00
CC(C(=O)O)c1ccc(C(=O)c2cccs2)cc1 (centres unmarked) [Suprofen],Difference,[1]; [12],−0.28
same,Cholesterol-free,[1]; [3],1.108
same,Complete,"[1]; NCI-H292 cells, complete media",0.8283
same,Cholesterol-free media + simvastatin (0.04 μM),[2]; [19],0.9436
same,Complete Media,[2]; [20],0.9637
same,Difference,[2]; [18],0.02
Escitalopram (oxalate),Difference,[1]; [12],−0.01
same,Cholesterol-free,[1]; [7],1.284
same,Complete,[1]; [8],1.269
same,Cholesterol-free media + simvastatin (0.04 μM),[2]; [19],0.9976
same,Difference,[2]; [18],0.04
Cc1ncc([N+](=O)[O-])n1CC(O)CCl (centres unmarked) [Ornidazole],Cholesterol-free,[1]; [7],0.6543
same,Complete,[1]; [8],1.082
same,Difference,[1]; [9],0.43
same,Cholesterol-free media + simvastatin (0.04 μM),[2]; [10],1.385
same,Complete Media,[2]; [11],1.209
same,Difference,[2]; [6],−0.18
O=c1c(-c2ccc(O)cc2)coc2cc(O[C@@H]3O[C@H](CO)[C@@H](O)[C@H](O)[C@H]3O)ccc12 [Daidzin],Difference,"[1]; Complete minus Cholesterol-free, […]",−0.25
same,Cholesterol-free,[1]; [3],1.084
same,Complete,"[1]; NCI-H292 cells, complete media",0.8381
same,Cholesterol-free media + simvastatin (0.04 μM),[2]; [10],1.011
same,Complete Media,[2]; [11],0.8061
same,Difference,"[2]; complete media vs cholesterol-free media + simvastatin (0.04 μM), […]",−0.20
CC(C)CN(C[C@@H](OP(=O)(O)O)[C@H](Cc1ccccc1)NC(=O)O[C@H]1CCOC1)S(=O)(=O)c1ccc(N)cc1 [Fosamprenavir],Difference,[1]; [12],−0.06
same,Cholesterol-free,[1]; [7],0.7855
same,Complete,[1]; [8],0.7241
same,Cholesterol-free media + simvastatin (0.04 μM),[2]; [16],1.194
same,Complete Media,[2]; [17],1.12
same,Difference,[2]; [6],−0.07
CCOC(=O)[C@H](CCc1ccccc1)N[C@@H](C)C(=O)N(CC(=O)O)C1Cc2ccccc2C1 [Delapril (hydrochloride)],Difference,[1]; [12],−0.30
same,Cholesterol-free,[1]; [3],1.222
same,Complete,"[1]; NCI-H292 cells, complete media",0.9182
same,Cholesterol-free media + simvastatin (0.04 μM),[2]; [19],0.7815
same,Complete Media,[2]; [20],0.8772
same,Difference,[2]; [18],0.10
C#C[C@]1(O)CC[C@H]2[C@@H]3CCC4=CCCC[C@@H]4[C@H]3C(=C)C[C@@]21CC [Desogestrel],Difference,[1]; [12],0.06
same,Cholesterol-free,[1]; [7],0.9017
same,Complete,[1]; [8],0.9645
same,Complete Media,[2]; [5],1.022
same,Difference,[2]; [6],−0.60
O=C1c2cccc(O)c2C(=O)c2c(O)cccc21 [Danthron],Difference,"[1]; Complete minus Cholesterol-free, greater than 0 enhanced anti-cancer activity, about 0 neutral, below 0 antagonist",−0.15
same,Cholesterol-free,"[1]; NCI-H292 cells, FDA drug library screen, cholesterol-free media without statin",0.9427
same,Complete,[1]; [17],0.7921
same,Cholesterol-free media + simvastatin (0.04 μM),[2]; [10],1.634
same,Complete Media,[2]; [11],1.469
same,Difference,[2]; [6],−0.16
